Laboratory results from patent US20210220312A1, “Compositions And Methods For Modulating Cancer” (Tyme, Inc., priority 2020, published 2021).

Test system: HCT116 tumors
Assay: Antitumor effect of oral α-methyl-DL-tyrosine in athymic nude mice bearing HCT116 tumors
Assay type: in vivo
Experimental: A study was conducted to evaluate the antitumor effect of an oral formulations of α-methyl-DL-tyrosine in athymic nude mice bearing HCT116 tumors. Athymic nude mice (female, 6-7 weeks old) were purchased from Charles River Laboratories, USA. The mice were housed in a ventilated cage rack with HEAP filter system, with 12-hour light cycle at 21-24° C. (70-75° F.) and 40-60% humidity. The mice were fed with Rodent Diet 5001 (Lab Diet) consisting of: >23% protein; >4.5% fat; and >6% fiber. The mice were allowed free access to water ([…] water, 1 ppm CI). The mice were acclimated for 5 days prior to the implantation of HCT116 cells at 1 million cells per mouse in 100 ul of 1×PBS containing 50% Matrigel. At the completion of study, mice were euthanized with isoflurane followed by inhalation of carbon dioxide (CO2). The HCT116 cells (human colon carcinoma) were purchased from ATCC, and expanded to sufficient number of cells for tumor cell implantation. Solutions of α-methyl-DL-tyrosine at 16.2 mg/ml, 32.4 mg/ml, and 64.8 mg/ml in water were prepared After an acclimation period of 5 days, fifty (50) athymic nude female mice were inoculated in the thigh/flank area with 1 million of HCT116 cells suspended in 100 μl 1×PBS containing 50% Matrigel. Beginning at Day 6 post cell inoculation, the tumor volume was measured every day until the average tumor volume reached about 100 mm^3 (Tumor Volume=length×width×width×0.5). Forty-four (44) out of the fifty (50) mice within the range of 50-150 mm^3 were selected and randomly grouped into 4 groups (n=11): a control group treated with water ([…]), and 324 mg/kg (Group 4). The HCT-116 tumor bearing mice were oral gavage (PO) dosed daily at 5 ml/kg with water (Group 1), α-methyl-DL-tyrosine at 81 mg/kg (Group 2), α-methyl-DL-tyrosine at 162 mg/kg (Group 3), and α-methyl-DL-tyrosine at 324 mg/kg (Group 4) for 28 days. Clinical observations were made daily; tumor volume was measured every three to four days prior to dosing until the completion of study or when individual tumor volume exceeds 2000 mm^3.

Compound: CC(N)(Cc1ccc(O)cc1)C(=O)O (racemic) [α-methyl-DL-tyrosine]
- tumor growth inhibition (324 mg/kg daily PO, p<0.05, t-test): statistically significant
- tumor inhibition (324 mg/kg daily, Day 28): non-significant
- HCT-116 Tumor volume (group average) (G2, 162 mg/kg [sic] PO daily, n = 11, Day 0 post 1st dosing): 63.5 mm^3
- HCT-116 Tumor volume (group average) (G2, 162 mg/kg [sic] PO daily, n = 11, Day 4 post 1st dosing): 112.5 mm^3
- HCT-116 Tumor volume (group average) (G2, 162 mg/kg [sic] PO daily, n = 11, Day 7 post 1st dosing): 215.3 mm^3
- HCT-116 Tumor volume (group average) (G2, 162 mg/kg [sic] PO daily, n = 11, Day 11 post 1st dosing): 373.6 mm^3
- HCT-116 Tumor volume (group average) (G2, 162 mg/kg [sic] PO daily, n = 11, Day 14 post 1st dosing): 643.5 mm^3
- HCT-116 Tumor volume (group average) (G2, 162 mg/kg [sic] PO daily, n = 11, Day 18 post 1st dosing): 1022.3 mm^3
- HCT-116 Tumor volume (group average) (G2, 162 mg/kg [sic] PO daily, n = 11, Day 21 post 1st dosing): 1405.9 mm^3
- HCT-116 Tumor volume (group average) (G2, 162 mg/kg [sic] PO daily, n = 11, Day 25 post 1st dosing): 1592.4 mm^3
- HCT-116 Tumor volume (group average) (G2, 162 mg/kg [sic] PO daily, n = 11, Day 28 post 1st dosing): 1718.8 mm^3
- HCT-116 Tumor volume (group average) (G3, 81 mg/kg [sic] PO daily, n = 11, Day 0 post 1st dosing): 64.3 mm^3
- HCT-116 Tumor volume (group average) (G3, 81 mg/kg [sic] PO daily, n = 11, Day 4 post 1st dosing): 106.0 mm^3
- HCT-116 Tumor volume (group average) (G3, 81 mg/kg [sic] PO daily, n = 11, Day 7 post 1st dosing): 214.6 mm^3
- HCT-116 Tumor volume (group average) (G3, 81 mg/kg [sic] PO daily, n = 11, Day 11 post 1st dosing): 391.4 mm^3
- HCT-116 Tumor volume (group average) (G3, 81 mg/kg [sic] PO daily, n = 11, Day 14 post 1st dosing): 676.6 mm^3
- HCT-116 Tumor volume (group average) (G3, 81 mg/kg [sic] PO daily, n = 11, Day 18 post 1st dosing): 1210.3 mm^3
- HCT-116 Tumor volume (group average) (G3, 81 mg/kg [sic] PO daily, n = 11, Day 21 post 1st dosing): 1680.1 mm^3
- HCT-116 Tumor volume (group average) (G3, 81 mg/kg [sic] PO daily, n = 11, Day 25 post 1st dosing): 1868.0 mm^3
- HCT-116 Tumor volume (group average) (G3, 81 mg/kg [sic] PO daily, n = 11, Day 28 post 1st dosing): 1979.2 mm^3
- HCT-116 Tumor volume (group average) (G4, 324 mg/kg PO daily, n = 11, Day 0 post 1st dosing): 64.2 mm^3
- HCT-116 Tumor volume (group average) (G4, 324 mg/kg PO daily, n = 11, Day 4 post 1st dosing): 92.9 mm^3
- HCT-116 Tumor volume (group average) (G4, 324 mg/kg PO daily, n = 11, Day 7 post 1st dosing): 172.3 mm^3
- HCT-116 Tumor volume (group average) (G4, 324 mg/kg PO daily, n = 11, Day 11 post 1st dosing): 310.5 mm^3
- HCT-116 Tumor volume (group average) (G4, 324 mg/kg PO daily, n = 11, Day 14 post 1st dosing): 506.3 mm^3
- HCT-116 Tumor volume (group average) (G4, 324 mg/kg PO daily, n = 11, Day 18 post 1st dosing): 654.9 mm^3
- HCT-116 Tumor volume (group average) (G4, 324 mg/kg PO daily, n = 11, Day 21 post 1st dosing): 890.6 mm^3
- HCT-116 Tumor volume (group average) (G4, 324 mg/kg PO daily, n = 11, Day 25 post 1st dosing): 1090.1 mm^3
- HCT-116 Tumor volume (group average) (G4, 324 mg/kg PO daily, n = 11, Day 28 post 1st dosing): 1325.7 mm^3
- maximum anti-tumor efficacy, reduction in tumor volume (observed on Day 22 (so in the source)): 48%
